25 compounds from patent publication EP4741386A1 (Jiangsu Yahong Meditech Co., Ltd., priority 2023, dated 2025) can be followed below.

In general, IC50 refers to the midpoint of a concentration-inhibition curve.

The target of assay [1] is T1, Recombinant human His6-USP1/His6-UAF1 complex protein (Homo sapiens, UniProt O94782).
T1 construct: His6; purchased R&D E-568-050
Kind of assay: In vitro inhibitory activity against USP1 (Ubiquitin Rhodamine 110 fluorescence detection, 384-well plate). It is filed as biochemical. Particulars: Ub-Rho substrate, 1 hour pre-incubation, read after 30 minutes. The procedure, abridged: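 Compounds, kept as 50 mM DMSO stocks, were acoustically dispensed into modified Tris buffer. Inhibition of recombinant human His6-USP1/His6-UAF1 was read by fluorescence from cleavage of Ub-Rho110 substrate.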

The next assay concerns MDA-MB-436. Description: CTG experiment for cell viability (CellTiter-Glo, 96-well plate, 7 days). In kind it is cell-based. To be noted: Homo sapiens, MDA-MB-436, 168 h, MDA-MB-436 cells, 7 days culture with compound. The procedure, abridged:
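Viability was read by CellTiter-Glo luminescence after 10 min at room temperature, once the compound-containing medium had been replaced with PBS. Before that, MDA-MB-436 cells grown in DMEM were exposed to compounds for 7 days at 37°C. Curve fitting followed the enzyme assay method.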

SMILES strings stand for the structures.

T1 sequence (O94782 whole entry): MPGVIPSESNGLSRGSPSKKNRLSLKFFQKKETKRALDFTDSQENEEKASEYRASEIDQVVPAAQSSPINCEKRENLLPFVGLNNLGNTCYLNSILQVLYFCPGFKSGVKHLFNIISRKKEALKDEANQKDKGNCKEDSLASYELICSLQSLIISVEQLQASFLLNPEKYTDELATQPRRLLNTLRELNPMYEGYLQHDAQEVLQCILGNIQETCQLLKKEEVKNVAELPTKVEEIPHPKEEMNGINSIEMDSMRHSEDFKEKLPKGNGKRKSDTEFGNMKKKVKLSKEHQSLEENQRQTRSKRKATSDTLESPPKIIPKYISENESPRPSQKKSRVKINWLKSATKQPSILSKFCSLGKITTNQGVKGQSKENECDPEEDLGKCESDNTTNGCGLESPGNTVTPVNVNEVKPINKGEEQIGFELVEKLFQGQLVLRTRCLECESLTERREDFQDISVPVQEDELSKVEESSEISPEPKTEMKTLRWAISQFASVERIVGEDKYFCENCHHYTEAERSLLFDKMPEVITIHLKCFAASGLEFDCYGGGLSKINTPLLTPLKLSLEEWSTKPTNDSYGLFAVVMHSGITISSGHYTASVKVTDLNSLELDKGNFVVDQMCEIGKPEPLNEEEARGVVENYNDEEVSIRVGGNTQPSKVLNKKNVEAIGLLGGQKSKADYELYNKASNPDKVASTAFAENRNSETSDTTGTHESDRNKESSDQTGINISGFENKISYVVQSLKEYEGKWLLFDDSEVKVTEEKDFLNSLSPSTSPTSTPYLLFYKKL
T1 sequence (Q8TAF3 whole entry partner): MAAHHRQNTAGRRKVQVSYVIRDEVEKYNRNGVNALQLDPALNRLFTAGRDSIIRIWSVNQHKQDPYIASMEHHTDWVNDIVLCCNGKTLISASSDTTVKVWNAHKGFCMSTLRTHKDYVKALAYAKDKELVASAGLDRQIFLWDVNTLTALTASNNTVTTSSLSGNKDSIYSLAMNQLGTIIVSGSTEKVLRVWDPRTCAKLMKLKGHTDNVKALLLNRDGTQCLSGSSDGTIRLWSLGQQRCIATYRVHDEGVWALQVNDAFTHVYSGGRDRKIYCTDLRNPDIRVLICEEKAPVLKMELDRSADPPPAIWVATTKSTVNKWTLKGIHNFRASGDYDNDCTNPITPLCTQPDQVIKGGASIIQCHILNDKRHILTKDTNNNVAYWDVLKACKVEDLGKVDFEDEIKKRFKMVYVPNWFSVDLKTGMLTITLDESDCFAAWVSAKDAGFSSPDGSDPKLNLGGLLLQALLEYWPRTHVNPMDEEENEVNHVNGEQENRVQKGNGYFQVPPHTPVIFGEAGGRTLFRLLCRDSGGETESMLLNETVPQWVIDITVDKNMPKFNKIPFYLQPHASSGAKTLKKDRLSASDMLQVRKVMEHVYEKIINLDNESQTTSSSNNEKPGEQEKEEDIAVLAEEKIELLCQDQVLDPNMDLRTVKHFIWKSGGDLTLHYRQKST

`[2H]C([2H])([2H])N(Cc1ccc(-c2nc(C(F)(F)F)cn2C2CC2)cc1)c1nc(-c2c(OC)ncnc2C2CC2)ncc1F` [Example 128, 4'-Cyclopropyl-N-(4-(1-cyclopropyl-4-(trifluoromethyl)-1H-imidazol-2-yl)benzyl)-5-fluoro-6'-methoxy-N-(methyl-d3)-[2,5'-bipyrimidin]-4-amine]: the figures for the IC50 (in assay [1]; in the assay with MDA-MB-436) were 2.6 nM and 5.7 nM, respectively.
Taken in the same sequence, the figures for `[2H]C([2H])([2H])N(Cc1ccc(-c2nc(C(F)(F)F)cn2C(C)C)cc1)c1nc(-c2c(OC)ncnc2C2CC2)ncc1F` [Example 129, 4'-Cyclopropyl-5-fluoro-N-(4-(1-isopropyl-4-(trifluoromethyl)-1H-imidazol-2-yl)benzyl)-6'-methoxy-N-(methyl-d3)-[2,5'-bipyrimidin]-4-amine] were 9 nM and 12.6 nM.
Taken in the same sequence, the figures for `[2H]C([2H])([2H])N(Cc1ccc(-c2nc(C(F)(F)F)cn2CF)cc1)c1nc(-c2c(OC)ncnc2C2CC2)ncc1F` [Example 130, 4'-Cyclopropyl-5-fluoro-N-(4-(1-(fluoromethyl)-4-(trifluoromethyl)-1H-imidazol-2-yl)benzyl)-6'-methoxy-N-(methyl-d3)-[2,5'-bipyrimidin]-4-amine] were 19 nM and 45.6 nM.
Taken in the same sequence, the figures for `COc1ncnc(C2CC2)c1-c1ncc(C#N)c(NCc2ccc(-c3nc(C(F)(F)F)cn3C)cc2)n1` [Example 131, 4'-Cyclopropyl-6'-methoxy-4-((4-(1-methyl-4-(trifluoromethyl)-1H-imidazol-2-yl)benzyl)amino)-[2,5'-bipyrimidine]-5-carbonitrile] were 7.4 nM and 45.5 nM.
Regarding `C#Cc1cnc(-c2c(OC)ncnc2C2CC2)nc1NCc1ccc(-c2nc(C(F)(F)F)cn2C)cc1` [Example 132, 4'-Cyclopropyl-5-ethynyl-6'-methoxy-N-(4-(1-methyl-4-(trifluoromethyl)-1H-imidazol-2-yl)benzyl)-[2,5'-bipyrimidin]-4-amine], the IC50 in assay [1] was found to be 6 nM; in the assay with MDA-MB-436, 8.8 nM.
Taken in the same sequence, the figures for `COc1ncnc(C2CC2)c1-c1ncc(OC(F)F)c(NCC2CCN(c3nc(C(F)(F)F)cn3C)CC2)n1` [Example 133, 4'-Cyclopropyl-5-(difluoromethoxy)-6'-methoxy-N-((1-(1-methyl-4-(trifluoromethyl)-1H-imidazol-2-yl)piperidin-4-yl)methyl)-[2,5'-bipyrimidin]-4-amine] were 15 nM and 135 nM.
Taken in the same sequence, the figures for `COc1ncnc(C2CC2)c1-c1ncc(OC(F)F)c(NCc2ccc(-c3nc(C(F)(F)F)cn3C)cc2)n1` [Example 134, 4'-Cyclopropyl-5-(difluoromethoxy)-6'-methoxy-N-(4-(1-methyl-4-(trifluoromethyl)-1H-imidazol-2-yl)benzyl)-[2,5'-bipyrimidin]-4-amine] were 3.2 nM and 34.1 nM.
As to `COc1ncnc(C2CC2)c1-c1ncc(OC(F)F)c(NCc2ccc(-n3nc(C(F)(F)F)cc3C)cc2)n1` [Example 135, 4'-Cyclopropyl-5-(difluoromethoxy)-6'-methoxy-N-(4-(5-methyl-3-(trifluoromethyl)-1H-pyrazol-1-yl)benzyl)-[2,5'-bipyrimidin]-4-amine], the IC50 in assay [1] worked out at 3.2 nM; in the assay with MDA-MB-436, 15.8 nM.
Taken in the same sequence, the figures for `COc1cc(-c2nc(C(F)(F)F)cn2C)ccc1CNc1nc(-c2c(OC)ncnc2C2CC2)ncc1OC(F)F` [Example 136, 4'-Cyclopropyl-5-(difluoromethoxy)-6'-methoxy-N-(2-methoxy-4-(1-methyl-4-(trifluoromethyl)-1H-imidazol-2-yl)benzyl)-[2,5'-bipyrimidin]-4-amine] were 17 nM and 24.9 nM.
In the case of `COc1ncnc(C2CC2)c1-c1ncc(CO)c(NCc2ccc(-c3nc(C(F)(F)F)cn3C(C)C)cc2)n1` [Example 137, (4'-Cyclopropyl-4-((4-(1-isopropyl-4-(trifluoromethyl)-1H-imidazol-2-yl)benzyl)amino)-6'-methoxy-[2,5'-bipyrimidin]-5-yl)methanol], the results for the IC50 (in assay [1]; in the assay with MDA-MB-436) were 24 nM and 216 nM, respectively.
Taken in the same sequence, the figures for `COCc1cnc(-c2c(OC)ncnc2C2CC2)nc1N(C)Cc1ccc(-c2nc(C(F)(F)F)cn2C(C)C)cc1` [Example 138, 4'-Cyclopropyl-N-(4-(1-isopropyl-4-(trifluoromethyl)-1H-imidazol-2-yl)benzyl)-6'-methoxy-5-(methoxymethyl)-N-methyl-[2,5'-bipyrimidin]-4-amine] were 9 nM and 12.4 nM.
Taken in the same sequence, the figures for `C#CCN(Cc1ccc(-c2nc(C(F)(F)F)cn2C)cc1)c1nc(-c2c(OC)ncnc2C2CC2)ncc1OC` [Example 139, 4'-Cyclopropyl-5,6'-dimethoxy-N-(4-(1-methyl-4-(trifluoromethyl)-1H-imidazol-2-yl)benzyl)-N-(prop-2-yn-1-yl)-[2,5'-bipyrimidin]-4-amine] were 5.2 nM and 5 nM.
Taken in the same sequence, the figures for `COc1cnc(-c2c(OC)ncnc2C2CC2)nc1N(Cc1ccc(-c2nc(C(F)(F)F)cn2C)cc1)C1CC1` [Example 141, N,4'-Dicyclopropyl-5,6'-dimethoxy-N-(4-(1-methyl-4-(trifluoromethyl)-1H-imidazol-2-yl)benzyl)-[2,5'-bipyrimidin]-4-amine] were 9.5 nM and 76.7 nM.
As for `COc1cnc(-c2c(OC)ncnc2C2CC2)nc1N(Cc1ccc(-c2nc(C(F)(F)F)cn2C)cc1)OC` [Example 142, N-(4'-Cyclopropyl-5,6'-dimethoxy-[2,5'-bipyrimidin]-4-yl)-O-methyl-N-(4-(1-methyl-4-(trifluoromethyl)-1H-imidazol-2-yl)benzyl)hydroxylamine], the values for the IC50 (in assay [1]; in the assay with MDA-MB-436) were 25 nM and 50 nM, respectively.
Taken in the same sequence, the figures for `COc1cnc(-c2cccc3c2N(C)CC3)nc1NCc1ccc(-c2nc(C(F)(F)F)cn2C)cc1` [Example 145, 5-Methoxy-N-(4-(1-methyl-4-(trifluoromethyl)-1H-imidazol-2-yl)benzyl)-2-(1-methylindolin-7-yl)pyrimidin-4-amine] were 19 nM and 731 nM.
Taken in the same sequence, the figures for `COc1cnc(-c2cccnc2C2CC2)nc1N(C)CC1CCN(c2ccccn2)CC1` [Example 151, 2-(2-Cyclopropylpyridin-3-yl)-5-methoxy-N-methyl-N-((1-(pyridin-2-yl)piperidin-4-yl)methyl)pyrimidin-4-amine] were 72 nM and 58.4 nM.
Taken in the same sequence, the figures for `COc1cnc(-c2cccnc2C2CC2)nc1NCC1CCN(c2nc(C(F)(F)F)cn2C)CC1` [Example 152, 2-(2-Cyclopropylpyridin-3-yl)-5-methoxy-N-((1-(1-methyl-4-(trifluoromethyl)-1H-imidazol-2-yl)piperidin-4-yl)methyl)pyrimidin-4-amine] were 7.5 nM and 64.4 nM.
For the compound `COc1cnc(-c2cccnc2C2CC2)nc1NCc1ccc(-c2nc(C(F)(F)F)cn2C)cc1` [Example 153, 2-(2-Cyclopropylpyridin-3-yl)-5-methoxy-N-(4-(1-methyl-4-(trifluoromethyl)-1H-imidazol-2-yl)benzyl)pyrimidin-4-amine], the IC50 turned out to be 3.4 nM in assay [1] and 25.4 nM in the assay with MDA-MB-436.
Regarding `COc1cnc(-c2cccnc2C2CC2)nc1NCc1ccc(-n2nc(C(F)(F)F)cc2C)cc1` [Example 154, 2-(2-Cyclopropylpyridin-3-yl)-5-methoxy-N-(4-(5-methyl-3-(trifluoromethyl)-1H-pyrazol-1-yl)benzyl)pyrimidin-4-amine], the IC50 in assay [1] was determined as 6.2 nM; in the assay on MDA-MB-436, 7.3 nM.
Taken in the same sequence, the figures for `c1ccc(-c2ccc(CNc3nc(-c4cccnc4C4CC4)nc4ccoc34)cc2)nc1` [Example 155, 2-(2-Cyclopropylpyridin-3-yl)-N-(4-(pyridin-2-yl)benzyl)furo[3,2-d]pyrimidin-4-amine] were 12 nM and 85.7 nM.
Taken in the same sequence, the figures for `COc1cnc(-c2cccnc2C(C)C)nc1NCc1ccc(-c2nc(C(F)(F)F)cn2C)cc1` [Example 157, 2-(2-Isopropylpyridin-3-yl)-5-methoxy-N-(4-(1-methyl-4-(trifluoromethyl)-1H-imidazol-2-yl)benzyl)pyrimidin-4-amine] were 2.9 nM and 23.3 nM.
Taken in the same sequence, the figures for `COc1cnc(-c2cccnc2C(C)C)nc1NCc1ccc(-n2nc(C(F)(F)F)cc2C)cc1` [Example 158, 2-(2-Isopropylpyridin-3-yl)-5-methoxy-N-(4-(5-methyl-3-(trifluoromethyl)-1H-pyrazol-1-yl)benzyl)pyrimidin-4-amine] were 2.1 nM and 12.3 nM.
In the case of `COc1cnc(-c2ccccc2N(C)C)nc1NCc1ccc(-c2nc(C(F)(F)F)cn2C)cc1` [Example 159, 2-(2-(Dimethylamino)phenyl)-5-methoxy-N-(4-(1-methyl-4-(trifluoromethyl)-1H-imidazol-2-yl)benzyl)pyrimidin-4-amine], the IC50 in assay [1] was 1.7 nM; with MDA-MB-436, 39.4 nM.
Taken in the same sequence, the figures for `COc1cnc(-c2ccccc2N(C)C)nc1NCc1ccc(-n2nc(C(F)(F)F)cc2C)cc1` [Example 160, 2-(2-(Dimethylamino)phenyl)-5-methoxy-N-(4-(5-methyl-3-(trifluoromethyl)-1H-pyrazol-1-yl)benzyl)pyrimidin-4-amine] were 3.6 nM and 121 nM.
As for `COc1cnc(-c2c(Cl)cnn2C(C)C)nc1N(C)CC1CCN(c2ccccn2)CC1` [Example 161, 2-(4-Chloro-1-isopropyl-1H-pyrazol-5-yl)-5-methoxy-N-methyl-N-((1-(pyridin-2-yl)piperidin-4-yl)methyl)pyrimidin-4-amine], the IC50 in assay [1] was 6 nM; in the assay on MDA-MB-436, 537 nM.
